Experimental data reported in patent US6372723B1, “Compositions and methods for preventing restenosis following revascularization procedures” (Discovery Therapeutics, Inc., priority 1997, dated 2002).

Assays:
[1] = tested on: rabbits with focal femoral atherosclerosis (arterial stenosis); assay: Restenosis after balloon angioplasty in rabbits with focal femoral atherosclerosis; type: in vivo; settings: rabbit
Method: Focal femoral atherosclerosis is induced in rabbits by air desiccation endothelial injury followed by a 2% cholesterol, 6% peanut oil diet for one month. The degree of arterial stenosis is assessed angiographically. At this time, balloon angioplasty is performed using a 2.5 mm balloon, which is inserted into the region of stenosis and inflated with three 60-second, 10-atmosphere inflations 60 seconds apart. This procedure is similar to that used in humans for clearing coronary blood vessels. Rabbits receive an intravenous infusion of 2-cyclohexylmethylenehydrazinoadenosine (0.6 μg/kg/min) or vehicle starting 10 minutes before the angioplasty procedure and continuing for 1 day following angioplasty. Angiograms are performed before and after angioplasty and at 28 days after angioplasty. These angiograms are analyzed quantitatively for decrease of arterial stenosis. Rabbits are sacrificed 28 days following angioplasty and arteries are analyzed histopathologically and morphometrically.
Example 1 is followed, with the exception that one rabbit group is treated with an effective amount of a combination of (±)-N^6-endonorboman-2-yl-9-methyladenine (0.25 mg/kg/min) and 5′-N-ethylcarboxamidoadenosine (6 μg/kg/min) instead of 2-cyclohexylmethylenehydrazinoadenosine. […]

[2] = tested on: humans with stenotic arteries (restenosis); assay: Incidence of restenosis by angiography six months after balloon angioplasty; type: in vivo, human; settings: i.v. infusion 0.6 μg/kg/min from 10 min before to 1 day after angioplasty
Method: Humans afflicted with impaired blood flow due to stenotic arteries are subjected to balloon angioplasty, and receive either an intravenous infusion of 2-cyclohexylmethylenehydrazinoadenosine (0.6 μg/kg/min) or vehicle starting 10 minutes before the angioplasty procedure and continuing for 1 day following angioplasty. Six months following the balloon angioplasty procedure, angiography is performed on these subjects to examine the blood vessel subjected to the angioplasty.

[3] = tested on: platelets and neutrophils; assay: In vivo activation of neutrophils and platelets after balloon angioplasty, flow cytometry of coronary sinus blood; design: species or system human; settings: humans, i.v. infusion 0.6 μg/kg/min from 10 min before to 1 day after angioplasty
Method: Humans are subjected to balloon angioplasty, and receive either an intravenous infusion of 2-cyclohexylmethylenehydrazinoadenosine (0.6 μg/kg/min) or vehicle starting 10 minutes before the angioplasty procedure and continuing for 1 day following angioplasty. In vivo activation of neutrophils and platelets are measured by taking a blood sample from the coronary sinus and measuring the expression of surface adhesion molecules on platelets and neutrophils by flow cytometry.

Structure (SMILES) | degree of arterial stenosis vs vehicle group ([1]; A1 antagonist alone 0.25 μg/kg/min, as Example 1) | incidence of restenosis vs vehicle group [2] | neutrophils that express surface adhesion molecules vs vehicle group [3] | platelets that express surface adhesion molecules vs vehicle group [3] | degree of arterial stenosis vs vehicle group ([1]; i.v. infusion 0.6 μg/kg/min from 10 min before to 1 day after angioplasty, assessed 28 days after angioplasty)
Cn1cnc2c(N[C@@H]3C[C@@H]4CC[C@H]3C4)ncnc21 (racemic) [(±)-N^6-endonorbornan-2-yl-9-methyladenine, reference compound] | significantly less |  |  |  | 
Nc1nc(NN=CC2CCCCC2)nc2c1ncn2[C@@H]1O[C@H](CO)[C@@H](O)[C@H]1O [2-cyclohexylmethylenehydrazinoadenosine] |  | significantly less | significantly fewer | significantly fewer | significantly less
